Measurements as given in US9458120B2, “Phenoxypropanol derivative and pharmaceutical composition including the same” (KOREA INSTITUTE OF SCIENCE AND TECHNOLOGY, priority 2011, dated 2016).

How the values were obtained:
[1] = target: α1G T-type calcium channel (Homo sapiens, UniProt O43497); assay: Assay for T-type calcium channel inhibition activity (FDSS6000 calcium imaging, KCl activation); type: cell-based; conditions: 75 s pre-treatment then KCl 75 mM, HEK293 cells expressing α1G T-type calcium channel and Kir2.1
Procedure: At 12-24 hours before the assay for T-type calcium channel activity, cells of HEK293 cell line (α1G cell line: KCTC 10519BP, GenBank, Korea Research Institute of Bioscience and Biotechnology) which stably express α1G T-type calcium channel and Kir2.1, were sub-cultured in a poly-L-lysine (0.05 mg/ml) treated 96-well plate with the density of 4×10^4 per a well using a 96-well cell dispenser (Titertek). On the day of assay, the 96-well plate to which the cells were attached were washed three times with a HEPES buffer solution (unit mM: 150 NaCl, 5 KCl, 1 MgCl2, 2 CaCl2, 10 HEPES, 10 glucose, pH 7.4) using a 96-well plate automatic washing device (Bio Tek), and then reacted with a HEPES buffer solution containing 5 μM fluo-3/AM and 0.001% (w/v) Pluronic F-127 at room temperature for 1 hour, to label with fluorescent dye, and then further washed twice with the HEPES buffer solution. Thereafter, at 10 minutes before the measurement using a FDSS6000 device, a washing with a HEPES buffer solution containing 10 mM CaCl2 was conducted once more, and the final volume was adjusted to 81 μl. Besides the above 96-well plate containing the cells, additional two 96-well drug plates were provided, in which the 96-well plates contained KCl (final concentration: 75 mM) for activating T-type calcium channel and a blocker drug, respectively.
Since most of cell-based HTS (High throughput screening) devices are equipped with a liquid application system for drug injection, but have no liquid sucking system, the blocker drug to be tested and KCl were respectively provided at the five-times higher concentration in 10 mM CaCl2 HEPES buffer solution at the amount of 27 μl, diluted five-times at the final cell plate volume of 135 μl, and then used in this test. In this Experimental Example, therefore, FDSS6000 (Hamamatsu Photonics) was used as an alternative to HTS device.
Specific FDSS6000 measurement conditions are as follows: After recording the reference value of 20 seconds, the change of intracellular calcium concentration which induced by pre-treatment of the drug (the prepared […]) for 75 seconds followed by administration of KCl was measured, in which the percentage (%) inhibition effect of the test drug was determined, through estimating the area of ratio value of 340/380 in the control without treatment of the test drug as 100%. As a reference drug, 10 μM of mibefradil was always used.
For accurate calcium-imagination, the light sources of 4 xenon lamps in FDSS6000 were radiated to make the cells exposed selectively to the excitation wavelength (340 nm and 380 nm) by computer-controlled filter wheel. Data was obtained at interval of each 1.23 second. The emitter fluorescence light inflow through a 515 nm long-pass filter was obtained as an average 340/380 ratio value for each well in the 96-wells by a cooled CCD camera and digital fluorescence analyzer in the device. All image data and analysis were obtained by using a FDSS6000-exclusive program provided by Hamamatsu Photonics, as described above.

TREK-1 channel = target: T1, TREK-1 channel (Rattus norvegicus, UniProt Q920B6); assay: Assay for TREK channel inhibition activity (whole cell patch clamp recording, COS7 cell transfected with GFP-rTREK-1); type: cell-based; conditions: COS7 cells, GFP-rTREK-1, whole-cell patch clamp; for inhibition at 10 µM: COS-7, Table 2, read-out: block % at 10 μM; for inhibition at 101 µM: COS-7, Table 3 (value ± spread), 101 μM [sic], read-out: block % at 101 μM
T1 construct: expressed in transfected cells; host or cells: COS7 (Korean Cell Line Bank), transient transfection with Effectene
T1 sequence (Q920B6 1-426): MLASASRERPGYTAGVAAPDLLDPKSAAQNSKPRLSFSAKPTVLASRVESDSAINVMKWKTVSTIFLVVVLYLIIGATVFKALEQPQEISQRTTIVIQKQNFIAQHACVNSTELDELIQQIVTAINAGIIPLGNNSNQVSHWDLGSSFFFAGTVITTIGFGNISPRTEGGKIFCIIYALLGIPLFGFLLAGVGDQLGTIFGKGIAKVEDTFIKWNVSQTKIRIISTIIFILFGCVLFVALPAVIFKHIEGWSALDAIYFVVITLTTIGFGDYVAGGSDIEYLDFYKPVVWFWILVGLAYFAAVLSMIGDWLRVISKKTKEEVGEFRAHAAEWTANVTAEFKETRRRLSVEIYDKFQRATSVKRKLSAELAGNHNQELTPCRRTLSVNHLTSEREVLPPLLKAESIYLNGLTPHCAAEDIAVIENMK
Procedure: The inhibition activity of the compound of the present invention against TREK-1 channel was measured by measuring the physiological activity by whole cell patch clamp recording.
COS7 cell (obtained from Korean Cell Line Bank (KCLB)) was transfected with GFP-rTREK-1 gene (accession number: AY727922) using an Effectene transfection reagent (Qiagen), and cultured for 24 hours in an incubator at 37° C. As a culture medium, Dulbecco's modified Eagle's medium (DMEM, GIBCO products from Invitrogen) containing 10% by weight of fetal bovine serum (FBS) and 1% by weight of penicillin/streptomycin (5000 unit/ml) was used. The cells thus prepared were adhered on a cover glass, which was placed on a chamber, and then a recording solution (150 mM NaCl, 10 mM HEPES, 10 mM KCl, 2 mM CaCl2, 5.5 mM D-Glucose, all reagents were purchased from Sigma) was applied. A glass microelectrode was filled with an intracellular solution prepared with the composition of 150 mM KCl, 5 mM EGTA, 10 mM HEPES, 0.5 mM CaCl2, 1 mM MgCl2, 4 mM Mg-ATP, and 0.3 mM Na-GTP (all reagents were purchased from Sigma), followed by whole-cell patch clamp recording. The voltage was fixed at −70 mV using a Digidata 1322A data acquisition system (Molecular Devices) and an Axopatch 200A amplifier (Axon Instruments), and the current generated by applying a voltage ramp from −100 mV to +100 mV for 1 second was measured using a Clampex9.2 program. A difference between the current values measured at +100 mV and −100 mV was defined as a current in the above experiment. The currents before and after blocker treatment were measured so as to determine the inhibition activity.
Block %=100−(current after blocker treatment/current before blocker treatment)*100

Chain of α1G T-type calcium channel (O43497 whole entry): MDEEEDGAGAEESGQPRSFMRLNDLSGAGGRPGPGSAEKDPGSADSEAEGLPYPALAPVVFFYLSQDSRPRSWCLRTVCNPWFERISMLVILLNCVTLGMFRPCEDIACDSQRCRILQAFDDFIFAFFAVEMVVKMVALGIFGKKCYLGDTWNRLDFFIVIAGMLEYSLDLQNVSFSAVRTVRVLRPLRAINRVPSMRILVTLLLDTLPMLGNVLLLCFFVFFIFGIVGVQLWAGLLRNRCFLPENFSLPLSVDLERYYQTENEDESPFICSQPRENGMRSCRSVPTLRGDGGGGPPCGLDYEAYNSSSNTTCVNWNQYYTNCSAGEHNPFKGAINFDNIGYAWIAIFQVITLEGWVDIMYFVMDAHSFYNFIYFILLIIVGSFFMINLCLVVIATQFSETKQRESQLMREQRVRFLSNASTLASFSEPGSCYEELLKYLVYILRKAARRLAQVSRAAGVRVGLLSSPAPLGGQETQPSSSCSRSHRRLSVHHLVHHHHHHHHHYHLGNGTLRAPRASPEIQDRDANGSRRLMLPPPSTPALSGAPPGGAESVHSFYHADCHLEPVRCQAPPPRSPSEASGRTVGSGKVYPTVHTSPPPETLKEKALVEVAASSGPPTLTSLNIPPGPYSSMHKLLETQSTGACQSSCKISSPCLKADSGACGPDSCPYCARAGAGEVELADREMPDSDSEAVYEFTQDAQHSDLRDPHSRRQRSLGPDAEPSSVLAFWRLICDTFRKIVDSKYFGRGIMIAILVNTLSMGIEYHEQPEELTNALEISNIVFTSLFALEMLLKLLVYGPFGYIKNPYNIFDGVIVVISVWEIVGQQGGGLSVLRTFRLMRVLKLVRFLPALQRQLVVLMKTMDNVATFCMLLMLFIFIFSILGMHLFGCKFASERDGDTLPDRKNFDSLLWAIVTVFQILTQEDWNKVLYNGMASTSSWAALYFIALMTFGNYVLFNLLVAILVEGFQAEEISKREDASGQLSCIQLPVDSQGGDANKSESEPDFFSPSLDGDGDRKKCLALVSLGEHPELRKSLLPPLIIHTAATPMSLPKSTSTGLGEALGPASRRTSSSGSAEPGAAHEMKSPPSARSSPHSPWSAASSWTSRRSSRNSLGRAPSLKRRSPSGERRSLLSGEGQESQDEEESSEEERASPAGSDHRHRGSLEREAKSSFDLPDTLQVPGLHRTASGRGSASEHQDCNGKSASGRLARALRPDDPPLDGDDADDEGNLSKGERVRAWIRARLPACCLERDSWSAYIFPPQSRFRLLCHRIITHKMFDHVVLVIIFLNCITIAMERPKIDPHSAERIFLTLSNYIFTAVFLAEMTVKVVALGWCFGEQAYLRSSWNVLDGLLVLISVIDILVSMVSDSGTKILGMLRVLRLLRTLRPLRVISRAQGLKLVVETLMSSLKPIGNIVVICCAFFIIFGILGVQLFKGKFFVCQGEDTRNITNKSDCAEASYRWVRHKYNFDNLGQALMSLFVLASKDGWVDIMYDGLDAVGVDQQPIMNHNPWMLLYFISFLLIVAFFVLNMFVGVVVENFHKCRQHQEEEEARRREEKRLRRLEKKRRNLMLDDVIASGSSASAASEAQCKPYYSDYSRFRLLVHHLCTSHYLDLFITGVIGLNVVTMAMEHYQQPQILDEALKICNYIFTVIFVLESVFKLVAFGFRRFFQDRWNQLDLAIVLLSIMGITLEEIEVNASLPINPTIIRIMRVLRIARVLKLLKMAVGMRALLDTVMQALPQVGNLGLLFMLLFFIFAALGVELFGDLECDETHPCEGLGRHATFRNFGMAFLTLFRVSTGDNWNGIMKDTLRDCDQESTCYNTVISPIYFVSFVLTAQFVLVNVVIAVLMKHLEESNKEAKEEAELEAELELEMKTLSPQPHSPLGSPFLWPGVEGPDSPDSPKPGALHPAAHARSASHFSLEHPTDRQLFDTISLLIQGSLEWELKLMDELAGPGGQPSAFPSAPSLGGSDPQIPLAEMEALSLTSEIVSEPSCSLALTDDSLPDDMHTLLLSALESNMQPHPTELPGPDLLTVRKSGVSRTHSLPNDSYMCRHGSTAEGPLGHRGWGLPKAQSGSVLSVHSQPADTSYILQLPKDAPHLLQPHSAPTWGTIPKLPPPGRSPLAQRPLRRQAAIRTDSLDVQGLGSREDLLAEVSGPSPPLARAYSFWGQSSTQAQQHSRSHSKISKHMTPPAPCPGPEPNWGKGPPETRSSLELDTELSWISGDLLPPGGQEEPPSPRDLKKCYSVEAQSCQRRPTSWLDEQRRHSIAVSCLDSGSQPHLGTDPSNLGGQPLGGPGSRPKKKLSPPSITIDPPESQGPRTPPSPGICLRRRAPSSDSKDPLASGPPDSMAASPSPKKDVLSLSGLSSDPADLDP

| SMILES | inhibition [1] [%] | inhibition at 10 µM (TREK-1 channel) [%] | inhibition at 101 µM (TREK-1 channel) [%] | block % at 100 μM (TREK-1 channel; Table 2) [%] | block % at 100 μM (TREK-1 channel; Table 3 (value ± spread)) [%] |
| --- | --- | --- | --- | --- | --- |
| Cc1ccc(CNC(=O)CN2CCN(C[C@H](O)COc3ccc(C(F)(F)F)cc3)CC2)cc1 [KKRE10174, (S)-2-(4-(2-hydroxy-3-(4-(trifluoromethyl)phenoxy)propyl)piperazin-1-yl)-N-(4-methylbenzyl)acetamide] | 48.8 | 37.6 | 37.6 ± 5.55 | 88.17 | 88.17 ± 4.60 |
| O[C@H](COc1ccc(F)cc1)CN1CCC(O)(c2ccccc2)CC1 [KKRE10181] | 35.4 |  | 53.9 ± 1.62 |  |  |
| O[C@H](COc1ccc(C(F)(F)F)cc1)CN1CCC(O)(c2ccccc2)CC1 [KKRE10191, (S)-1-(2-hydroxy-3-(4-(trifluoromethyl)phenoxy)propyl)-4-phenylpiperidin-4-ol] | 16.8 |  |  |  |  |
| Cc1ccc(OC[C@H](O)CN2CCN(CC(=O)NCc3ccccc3)CC2)cc1 [KKRE10196, (R)-N-benzyl-2-(4-(2-hydroxy-3-(p-tolyloxy)propyl)piperazin-1-yl)acetamide] | 26 |  | 4.7 ± 1.04 |  |  |
| O[C@@H](COc1ccc(F)cc1)CN1CCC(O)(c2ccccc2)CC1 [KKRE10179] | 16 |  | 19.9 ± 4.25 |  |  |
| O[C@H](COc1ccc(C(F)(F)F)cc1)CN1CCC(F)(F)CC1 [KKRE10190, (S)-1-(4,4-difluoropiperidin-1-yl)-3-(4-(trifluoromethyl)phenoxy)propan-2-ol] | 35 |  |  |  |  |
| COc1cccc(C2CCN(C[C@@H](O)COc3ccc(F)cc3)CC2)c1 [KKRE10162, (R)-1-(4-fluorophenoxy)-3-(4-(3-methoxyphenyl)piperidin-1-yl)propan-2-ol] |  | 52.5 | 52.5 ± 6.76 |  |  |
| O=C(CN1CCN(C[C@@H](O)COc2ccc(C(F)(F)F)cc2)CC1)Nc1ccc(F)cc1 [KKRE10145] |  | 35.2 | 35.2 ± 4.89 |  |  |
| O=C(CN1CCN(CC(O)COc2ccc(C(F)(F)F)cc2)CC1)NC1CCCCC1 (centres unmarked) [KKRE10177, N-cyclohexyl-2-(4-(2-hydroxy-3-(4-(trifluoromethyl)phenoxy)propyl)piperazin-1-yl)acetamide] | 42 |  |  |  |  |
| O[C@H](COc1ccc(C(F)(F)F)cc1)CN1CCC(N2CCCC2)CC1 [KKRE10189, (S)-1-(4-(pyrrolidin-1-yl)piperidin-1-yl)-3-(4-(trifluoromethyl)phenoxy)propan-2-ol] | 8.45 |  |  |  |  |
| Cc1ccc(CNC(=O)CN2CCN(C[C@H](O)COc3ccccc3)CC2)cc1 [KKRE10205, (S)-2-(4-(2-hydroxy-3-phenoxypropyl)piperazin-1-yl)-N-(4-methylbenzyl)acetamide] |  | 26.4 | 26.4 ± 12.2 |  |  |
| Cc1ccc(OC[C@@H](O)CN2CCN(Cc3c(F)cccc3Cl)CC2)cc1 [KKRE10138] |  | 13 | 13 ± 10.1 | 71.47 | 71.47 ± 3.30 |

Results, then the molecule that gave them:

| inhibition [1] [%] | inhibition at 10 µM (TREK-1 channel) [%] | inhibition at 101 µM (TREK-1 channel) [%] | block % at 100 μM (TREK-1 channel; Table 2) [%] | block % at 100 μM (TREK-1 channel; Table 3 (value ± spread)) [%] | SMILES |
| --- | --- | --- | --- | --- | --- |
| 73.2 |  | 58.6 ± 4.35 |  |  | CC(C)Cc1cc(CNC(=O)CN2CCN(C[C@H](O)COc3ccc(F)cc3)CC2)nn1-c1ccc(F)cc1 [KKRE10228, (S)-2-(4-(3-(4-Fluorophenoxy)-2-hydroxypropyl)piperazin-1-yl)-N-((1-(4-fluorophenyl)-5-isobutyl-1H-pyrazol-3-yl)methyl)acetamide] |
|  | 17 | 17 ± 6.93 | 50.00 | 50.00 ± 5.72 | C=C[C@H]1C[N@@]2CC[C@H]1C[C@H]2[C@H](O)c1ccnc2ccc(OC)cc12 [quinine, reference compound] |
|  |  | 44 ± 7.7 |  |  | O=C(CN1CCN(C[C@@H](O)COc2ccccc2)CC1)NCc1ccc(C(F)(F)F)cc1 [KKRE10206, (R)-2-(4-(2-hydroxy-3-phenoxypropyl)piperazin-1-yl)-N-(4-(trifluoromethyl)benzyl)acetamide] |
| 80.9 |  | 82.1 ± 3.81 |  |  | CC(C)Cc1cc(CNC(=O)CN2CCN(C[C@H](O)COc3ccc(C(F)(F)F)cc3)CC2)nn1-c1ccccc1 [KKRE10215, (S)-2-(4-(2-Hydroxy-3-(4-(trifluoromethyl)phenoxy)propyl)piperazin-1-yl)-N-((5-isobutyl-1-phenyl-1H-pyrazol-3-yl)methyl)acetamide] |
|  |  |  | 33.46 | 33.46 ± 8.09 | C=C[C@H]1C[N@@]2CC[C@H]1C[C@@H]2[C@@H](O)c1ccnc2ccc(OC)cc12 [quinidine, reference compound] |
|  |  | 48.5 ± 4.26 |  |  | CC(C)Cc1cc(CN2CCN(C[C@@H](O)COc3ccc(C(F)(F)F)cc3)CC2)nn1-c1ccccc1 [KKRE10231] |
|  |  | 21.7 ± 3.13 |  |  | CC(C)Cc1cc(CN2CCN(C[C@H](O)COc3ccc(F)cc3)CC2)nn1-c1ccccc1 [KKRE10232] |
|  | 53 | 53 ± 5.98 |  |  | O=C(CN1CCN(C[C@H](O)COc2ccccc2)CC1)NCc1ccc(C(F)(F)F)cc1 [KKRE10207, (S)-2-(4-(2-hydroxy-3-phenoxypropyl)piperazin-1-yl)-N-(4-(trifluoromethyl)benzyl)acetamide] |
|  |  | 84.2 ± 2.22 |  |  | CC(C)Cc1cc(CN2CCN(C[C@H](O)COc3ccc(C(F)(F)F)cc3)CC2)nn1-c1ccccc1 [KKRE10234] |
| 74.3 |  |  |  |  | O=C(CN1CCN(C[C@@H](O)COc2ccc(C(F)(F)F)cc2)CC1)NCc1cc(C2CC2)n(-c2ccccc2)n1 [KKRE10212, (R)-N-((5-cyclopropyl-1-phenyl-1H-pyrazol-3-yl)methyl)-2-(4-(2-hydroxy-3-(4-(trifluoromethyl)phenoxy)propyl)piperazin-1-yl)acetamide] |
|  | 19.8 | 19.8 ± 9.57 | 49.71 | 49.71 ± 5.83 | CC[C@H]1CN2CC[C@H]1C[C@H]2[C@H](O)c1ccnc2ccc(OC)cc12 [hydroquinine, reference compound] |
|  |  | 21.6 ± 4.63 |  |  | CC(C)Cc1cc(CN2CCN(C[C@@H](O)COc3ccc(F)cc3)CC2)nn1-c1ccccc1 [KKRE10233] |
